Experiment [1] addresses H1047R PIK3CA enzyme (Homo sapiens, UniProt P42336, H1047R). Briefly: ADP-Glo Biochemical PIK3CA Kinase Assay.
Experiment [2] in a line: cells. The note with it: Homo sapiens, MCF-10A, read-out: MCF10A IC50.

pIC50: −log10 of the molar value.

H1047R PIK3CA enzyme, sequence (P42336 whole entry H1047R): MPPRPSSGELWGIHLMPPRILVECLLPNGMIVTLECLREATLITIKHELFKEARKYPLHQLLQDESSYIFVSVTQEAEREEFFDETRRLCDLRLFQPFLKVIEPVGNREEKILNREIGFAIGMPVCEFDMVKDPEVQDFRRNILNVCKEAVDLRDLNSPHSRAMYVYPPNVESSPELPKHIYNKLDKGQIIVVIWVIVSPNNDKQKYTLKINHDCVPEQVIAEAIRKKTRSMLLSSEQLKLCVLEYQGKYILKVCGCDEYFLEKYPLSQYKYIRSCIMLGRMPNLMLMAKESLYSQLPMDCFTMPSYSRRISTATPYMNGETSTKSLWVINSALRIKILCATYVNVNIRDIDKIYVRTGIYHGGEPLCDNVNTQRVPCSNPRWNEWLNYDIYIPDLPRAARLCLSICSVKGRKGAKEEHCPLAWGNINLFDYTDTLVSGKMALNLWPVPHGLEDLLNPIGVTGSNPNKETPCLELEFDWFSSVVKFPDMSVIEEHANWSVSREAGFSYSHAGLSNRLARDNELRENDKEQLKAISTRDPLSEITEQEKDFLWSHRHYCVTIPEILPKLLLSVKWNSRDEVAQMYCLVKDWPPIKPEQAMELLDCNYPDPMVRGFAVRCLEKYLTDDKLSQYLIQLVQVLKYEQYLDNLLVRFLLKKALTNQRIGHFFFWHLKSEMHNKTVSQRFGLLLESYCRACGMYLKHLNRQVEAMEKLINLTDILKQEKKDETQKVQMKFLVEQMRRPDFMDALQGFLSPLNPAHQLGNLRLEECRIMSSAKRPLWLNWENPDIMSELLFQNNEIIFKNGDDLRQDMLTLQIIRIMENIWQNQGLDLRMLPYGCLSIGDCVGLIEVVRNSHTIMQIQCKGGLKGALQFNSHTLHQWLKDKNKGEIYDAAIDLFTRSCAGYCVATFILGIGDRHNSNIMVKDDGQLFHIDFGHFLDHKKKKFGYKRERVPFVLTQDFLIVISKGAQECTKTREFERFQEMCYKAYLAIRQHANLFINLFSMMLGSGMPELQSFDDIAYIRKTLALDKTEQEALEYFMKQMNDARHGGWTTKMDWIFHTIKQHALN
H1047R PIK3CA enzyme, sequence (P27986 whole entry partner): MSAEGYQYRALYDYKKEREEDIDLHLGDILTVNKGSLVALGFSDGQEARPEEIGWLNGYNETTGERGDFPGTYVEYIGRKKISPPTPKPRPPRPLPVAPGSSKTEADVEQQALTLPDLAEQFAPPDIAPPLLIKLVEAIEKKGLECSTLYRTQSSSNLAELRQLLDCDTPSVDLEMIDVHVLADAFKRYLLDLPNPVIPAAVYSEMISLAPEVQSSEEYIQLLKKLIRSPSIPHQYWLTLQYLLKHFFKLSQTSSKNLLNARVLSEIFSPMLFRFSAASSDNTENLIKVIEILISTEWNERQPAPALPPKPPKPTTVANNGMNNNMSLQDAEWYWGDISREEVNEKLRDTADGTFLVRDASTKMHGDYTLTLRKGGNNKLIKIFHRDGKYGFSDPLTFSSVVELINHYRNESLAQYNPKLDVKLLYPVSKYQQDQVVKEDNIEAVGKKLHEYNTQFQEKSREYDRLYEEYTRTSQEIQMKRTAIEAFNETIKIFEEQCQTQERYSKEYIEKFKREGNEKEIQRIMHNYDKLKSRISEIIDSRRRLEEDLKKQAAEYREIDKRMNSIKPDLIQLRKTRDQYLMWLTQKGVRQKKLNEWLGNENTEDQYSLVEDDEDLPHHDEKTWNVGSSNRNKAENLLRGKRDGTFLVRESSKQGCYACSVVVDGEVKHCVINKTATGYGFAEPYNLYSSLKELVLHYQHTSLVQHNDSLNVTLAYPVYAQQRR

For the molecule `O=C(Nc1cc(-c2cnc3cnccn23)cc2c1C(c1cc(F)ccc1Cl)NC2=O)c1cc(F)cc(C(F)(F)F)c1` (centres unmarked) [Compound I-940], the results for the pIC50 in experiment [1] and in experiment [2] were not below 7.00 and more than 6.00, respectively.

As for `O=C(Nc1cc(-c2ccc[nH]c2=O)cc2c1C(c1cc(F)ccc1Cl)NC2=O)c1cc(F)cc(C(F)(F)F)c1` (centres unmarked) [Compound I-916], the results for the pIC50 in experiment [1] and in experiment [2] were not below 7.00 and more than 6.00, respectively.

`O=C1N[C@H](c2cc(F)ccc2Cl)c2c(NC(=O)N3C[C@@](O)(C(F)(F)F)c4cc(F)ccc43)cc(Cl)nc21` (single isomer, unassigned) [Compound I-2703]: the figures for the pIC50 in experiment [1] and in experiment [2] were not below 7.00 and more than 6.00, respectively.

In the case of `O=C1NC(c2cc(F)ccc2Cl)c2c(Nc3nccc4c(C(F)(F)F)cc(F)cc34)cc(Br)cc21` (centres unmarked) [Compound I-978], the results for the pIC50 in experiment [1] and in experiment [2] were not below 7.00 and more than 6.00, respectively.

Take `O=C(Nc1cc(-c2cc3cccnc3[nH]2)cc2c1C(c1cc(F)ccc1Cl)NC2=O)c1cc(F)cc(C(F)(F)F)c1` (centres unmarked) [Compound I-972]: the values for the pIC50 in experiment [1] and in experiment [2] were not below 7.00 and more than 6.00, respectively.

For the molecule `NC(=O)c1nc(-c2cc(NC(=O)c3cc(F)cc(C(F)(F)F)c3)c3c(c2)C(=O)NC3c2cc(F)ccc2Cl)cs1` (centres unmarked) [Compound I-1067], the pIC50 in experiment [1] is not below 7.00; in experiment [2], more than 6.00.

Consider `COc1cccc(-c2cc(NC(=O)c3cc(F)cc(C(F)(F)F)c3)c3c(c2)C(=O)N[C@H]3c2cc(F)ccc2Cl)n1` (stereo in doubt) [Compound I-1006], for which the pIC50 in experiment [1] is not below 7.00; in experiment [2], more than 6.00.

Consider `O=C(Nc1cc(N2CCOCC2)cc2c1C(c1cc(F)ccc1Cl)NC2=O)c1cc(F)cc(C(F)(F)F)c1` (centres unmarked) [Compound I-1164], for which the pIC50 in experiment [1] was not below 7.00; in experiment [2], more than 6.00.

As to `O=C(Nc1cc(-c2ccnc3ccccc23)cc2c1C(c1cc(F)ccc1Cl)NC2=O)c1cc(F)cc(C(F)(F)F)c1` (centres unmarked) [Compound I-934], the negative logarithm of the IC50 (pIC50) is not below 7.00 in experiment [1] and more than 6.00 in experiment [2].

For the molecule `O=C(Nc1cc(-c2cnn(C3CNC3)c2)cc2c1C(c1cc(F)ccc1Cl)NC2=O)c1cc(F)cc(C(F)(F)F)c1` (centres unmarked) [Compound I-903], the results for the pIC50 in experiment [1] and in experiment [2] were not below 7.00 and 4.44 to 5.00, respectively.

In the case of `O=C(Nc1cc(Nc2nc3ccccc3[nH]2)cc2c1C(c1cc(F)ccc1Cl)NC2=O)c1cc(F)cc(C(F)(F)F)c1` (centres unmarked) [Compound I-993], the pIC50 was not below 7.00 in experiment [1] and 5.30 to 6.00 in experiment [2].

Regarding `O=C(Nc1cc(-c2ccc3c(c2)OCCO3)cc2c1C(c1cc(F)ccc1Cl)NC2=O)c1cc(F)cc(C(F)(F)F)c1` (centres unmarked) [Compound I-932], the pIC50 was 6.30 to 7.00 in experiment [1] and 5.30 to 6.00 in experiment [2].

For the molecule `O=C(Nc1cc(-c2ccncc2F)cc2c1C(c1cc(F)ccc1Cl)NC2=O)c1cc(F)cc(C(F)(F)F)c1` (centres unmarked) [Compound I-887], the negative logarithm of the IC50 (pIC50) in experiment [1] is not below 7.00; in experiment [2] it was more than 6.00.

In the case of `O=C1N[C@H](c2ccccc2Cl)c2c(NC(=O)c3csc4ccccc34)ccnc21` [Compound I-33], the pIC50 in experiment [1] is 6.30 to 7.00; in experiment [2], 5.30 to 6.00.

As for `O=C1N[C@@H](c2cc(F)ccc2Cl)c2c(NC(=O)N3C[C@@H](C(F)F)c4ccccc43)cccc21` (single isomer, unassigned) [Compound I-2334], the pIC50 in experiment [1] is not below 7.00; in experiment [2], 5.30 to 6.00.

With `CC(C)(O)c1cc(NC(=O)c2cc(F)cc(C(F)(F)F)c2)c2c(c1)C(=O)N[C@H]2c1cc(F)ccc1C(F)F` [Compound I-264], the negative-log IC50 (pIC50) is not below 7.00 in experiment [1] and 5.30 to 6.00 in experiment [2].

On to `O=C(Nc1cc(Nc2nnco2)cc2c1C(c1cc(F)ccc1Cl)NC2=O)c1cc(F)cc(C(F)(F)F)c1` (centres unmarked) [Compound I-1099], for which the pIC50 was not below 7.00 in experiment [1] and more than 6.00 in experiment [2].

Consider `O=C(Nc1cc(-c2ccn[nH]2)cc2c1[C@H](c1cc(F)ccc1Cl)NC2=O)c1cc(F)cc(C(F)(F)F)c1` [Compound I-865], for which the pIC50 in experiment [1] was not below 7.00; in experiment [2], more than 6.00.

`O=C1CCc2c(cccc2-c2cc(NC(=O)c3cc(F)cc(C(F)(F)F)c3)c3c(c2)C(=O)NC3c2cc(F)ccc2Cl)N1` (centres unmarked) [Compound I-1028]: the pIC50 is not below 7.00 in experiment [1] and more than 6.00 in experiment [2].

As to `CC(C)(O)Cn1cc(-c2cc(NC(=O)c3cc(F)cc(C(F)(F)F)c3)c3c(c2)C(=O)N[C@H]3c2cc(F)ccc2Cl)cn1` [Compound I-1097], the pIC50 was not below 7.00 in experiment [1] and more than 6.00 in experiment [2].

Turning to `COc1c(F)cccc1-c1cc(NC(=O)c2cc(F)cc(C(F)(F)F)c2)c2c(c1)C(=O)NC2c1cc(F)ccc1Cl` (centres unmarked) [Compound I-1156], the negative logarithm of the IC50 (pIC50) in experiment [1] is not below 7.00; in experiment [2], more than 6.00.

On to `O=C1NC(c2cc(F)ccc2Cl)c2c(NC(=O)c3cc(F)cc4c(Cl)c[nH]c34)cccc21` (centres unmarked) [Compound I-1161], for which the pIC50 in experiment [1] was 6.30 to 7.00; in experiment [2], 5.30 to 6.00.

On to `N#CCCc1cc(NC(=O)c2cc(F)cc(C(F)(F)F)c2)c2c(c1)C(=O)N[C@H]2c1cc(F)ccc1Cl` (stereo in doubt) [Compound I-2169], for which the results for the pIC50 in experiment [1] and in experiment [2] were not below 7.00 and more than 6.00, respectively.

As to `CNC(=O)c1cc(NC(=O)c2nsc3ccccc23)c2c(c1)C(=O)N[C@@H]2c1ccccc1C` [Compound I-164], the results for the negative logarithm of the IC50 (pIC50) in experiment [1] and in experiment [2] were 5.00 to 6.00 and 4.44 to 5.00, respectively.

Regarding `CC(=O)Nc1cc(NC(=O)N2C[C@](O)(C(F)(F)F)c3cc(F)ccc32)c2c(c1)C(=O)N[C@@H]2c1cc(F)ccc1Cl` (single isomer, unassigned) [Compound I-2573], the pIC50 is not below 7.00 in experiment [1] and more than 6.00 in experiment [2].

As to `O=C(Nc1cc(NC2=NC3(CC3)CO2)cc2c1C(c1cc(F)ccc1Cl)NC2=O)c1cc(F)cc(C(F)(F)F)c1` (centres unmarked) [Compound I-2359], the pIC50 was not below 7.00 in experiment [1] and 5.30 to 6.00 in experiment [2].

As for `O=C(Nc1cc(-c2cnc3nccn3c2)cc2c1[C@H](c1cc(F)ccc1Cl)NC2=O)c1cc(F)cc(C(F)(F)F)c1` [Compound I-884], the pIC50 was not below 7.00 in experiment [1] and more than 6.00 in experiment [2].

As to `N#Cc1cc(NC(=O)N2CC(O)(C(F)(F)F)c3cc(F)ccc32)c2c(c1)C(=O)NC2c1cc(F)ccc1Cl` (centres unmarked) [Compound I-2469], the pIC50 in experiment [1] was not below 7.00; in experiment [2], more than 6.00.

For `CC(C)(O)CNc1cc(NC(=O)c2cc(F)cc(C(F)(F)F)c2)c2c(c1)C(=O)N[C@@H]2c1cc(F)ccc1Cl` [Compound I-900], the pIC50 in experiment [1] is not below 7.00; in experiment [2] it was more than 6.00.

For the molecule `N#Cc1c(N)cc(NC(=O)c2cc(F)cc(C(F)(F)F)c2)c2c1C(=O)NC2c1cc(F)ccc1Cl` (centres unmarked) [Compound I-2223], the negative-log IC50 (pIC50) in experiment [1] was not below 7.00; in experiment [2], more than 6.00.

Consider `O=C1NC(c2cc(F)ccc2Cl)c2c(NC(=O)N3CC(O)(C(F)F)c4cc(F)ccc43)cc(F)cc21` (centres unmarked) [Compound I-2622], for which the negative logarithm of the IC50 (pIC50) in experiment [1] was not below 7.00; in experiment [2], 5.30 to 6.00.

As to `Nc1cc(NC(=O)N2C[C@@H](O)c3cc(F)ccc32)c2c(c1)C(=O)N[C@H]2c1cc(F)ccc1Cl` (single isomer, unassigned) [Compound I-2411], the negative-log IC50 (pIC50) was not below 7.00 in experiment [1] and 4.44 to 5.00 in experiment [2].

Turning to `O=C(Nc1cc(-c2cccc3cnccc23)cc2c1C(c1cc(F)ccc1Cl)NC2=O)c1cc(F)cc(C(F)(F)F)c1` (centres unmarked) [Compound I-902], the pIC50 is not below 7.00 in experiment [1] and more than 6.00 in experiment [2].

Turning to `Nc1cnc(-c2cc(NC(=O)c3cc(F)cc(C(F)(F)F)c3)c3c(c2)C(=O)NC3c2cc(F)ccc2Cl)cn1` (centres unmarked) [Compound I-1102], the values for the negative logarithm of the IC50 (pIC50) in experiment [1] and in experiment [2] were not below 7.00 and more than 6.00, respectively.

(Values after patent US12581252B2, “Substituted pyrrolo[3,4-b]pyridines as PI3K-α inhibitors” (Relay Therapeutics, Inc., priority 2020, dated 2026).)
